Article PMC5099554 (British Journal of Clinical Pharmacology, 2016)
Like-named read-outs stand apart in the source and are kept apart here.

Key:
CYP3A4 = CYP3A4 (Homo sapiens, UniProt P08684); conditions: in vitro; cited from earlier work
[1] = for AUC(0-inf) / AUC(0-t) / half-life / Tmax: male, human, in vivo; for AUC(0-inf): AUCinf; for AUC(0-inf) / AUC(0-t): geometric mean; for AUC(0-t): AUClast; for half-life: t 1/2, geometric mean
CYP1A2 = conditions: cited from earlier work
[2] = healthy male subjects, plasma, after 2 weeks of fermented red ginseng
[3] = healthy male subjects, plasma, before fermented red ginseng
[4] = After FRG, healthy male subjects, plasma, after 2 weeks of fermented red ginseng
[5] = Before FRG, healthy male subjects, plasma, before fermented red ginseng
[6] = t max (median), Before FRG, healthy male subjects, plasma, before fermented red ginseng
[7] = t max (median), After FRG, healthy male subjects, plasma, after 2 weeks of fermented red ginseng

Sequence of CYP3A4 (P08684 whole entry): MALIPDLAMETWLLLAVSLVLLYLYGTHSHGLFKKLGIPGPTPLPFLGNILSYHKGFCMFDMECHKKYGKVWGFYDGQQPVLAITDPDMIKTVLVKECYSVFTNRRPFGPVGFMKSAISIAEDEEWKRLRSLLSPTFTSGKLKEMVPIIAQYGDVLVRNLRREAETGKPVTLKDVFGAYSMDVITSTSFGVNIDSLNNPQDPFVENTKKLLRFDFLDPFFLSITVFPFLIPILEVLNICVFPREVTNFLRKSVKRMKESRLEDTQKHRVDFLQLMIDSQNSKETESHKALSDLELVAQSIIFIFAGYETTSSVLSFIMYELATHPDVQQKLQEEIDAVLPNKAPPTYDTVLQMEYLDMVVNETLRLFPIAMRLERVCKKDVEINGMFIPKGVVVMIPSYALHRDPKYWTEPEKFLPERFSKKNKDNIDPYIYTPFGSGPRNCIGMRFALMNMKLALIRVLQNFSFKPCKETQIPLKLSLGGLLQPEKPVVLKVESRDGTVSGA

Compound | AUCinf, geometric mean ratio, After FRG: Before FRG (90% CI) ([1]; healthy male subjects, plasma) | AUClast, geometric mean ratio, After FRG: Before FRG (90% CI) ([1]; healthy male subjects, plasma) | C max, geometric mean ratio, After FRG: Before FRG (90% CI) ([1]; healthy male subjects, plasma) | t 1/2, geometric mean, After FRG [1, 2] | t 1/2, geometric mean, Before FRG [1, 3] | t max (median), Before FRG [1, 3] | AUC(0-inf) [1, 4] | AUC(0-inf) [1, 5] | AUC(0-t) [1, 4] | AUC(0-t) [1, 5] | half-life [1, 4] | half-life [1, 5] | Tmax [1, 6] | other results
CC(C)=CCCC(C)(O)[C@H]1CC[C@]2(C)[C@@H]1[C@H](O)C[C@@H]1[C@@]3(C)CC[C@H](O)C(C)(C)[C@@H]3CC[C@]12C (stereo in doubt) [PPD, protopanaxadiol] | – | – | – | – | – | – | – | – | – | – | – | – | – | inhibition of CYP3A4 activity (CYP3A4): potent inhibition
OCc1ncc2n1-c1ccc(Cl)cc1C(c1ccccc1F)=NC2 [1‐hydroxymidazolam] | 0.924 (0.791–1.080) | 0.944 (0.805–1.107) | 0.750 (0.583–0.966) | 0.678 h | 0.728 h | 0.500 h | – | – | – | – | – | – | – | AUCinf, geometric mean, After FRG [1, 2]: 74.221 ng·h/mL; AUClast, geometric mean, After FRG [1, 2]: 69.474 ng·h/mL; t max (median), After FRG [1, 2]: 0.517 h; AUCinf, geometric mean, Before FRG [1, 3]: 80.311 ng·h/mL; AUClast, geometric mean, Before FRG [1, 3]: 73.587 ng·h/mL
COc1ccc2nc([S+]([O-])Cc3ncc(CO)c(OC)c3C)[nH]c2c1 (centres unmarked) [5‐hydroxyomeprazole] | 1.050 (0.961–1.147) | 0.979 (0.918–1.045) | 0.945 (0.859–1.039) | 2.716 h | 1.971 h | 3.000 h | – | – | – | – | – | – | – | AUCinf, geometric mean, After FRG [1, 2]: 283.859 ng·h/mL; AUClast, geometric mean, After FRG [1, 2]: 239.033 ng·h/mL; t max (median), After FRG [1, 2]: 3.000 h; AUCinf, geometric mean, Before FRG [1, 3]: 270.368 ng·h/mL; AUClast, geometric mean, Before FRG [1, 3]: 244.051 ng·h/mL
Cn1c(=O)c2c(ncn2C)n(C)c1=O [Caffeine, caffeine] | 1.165 (1.002–1.356) | 1.128 (0.997–1.277) | 1.002 (0.857–1.171) | – | – | – | 57500 ng·h/mL | 49300 ng·h/mL | 51300 ng·h/mL | 45500 ng·h/mL | 6.94 h | 5.5 h | 0.5 h | fraction metabolized to paraxanthine by CYP1A2 (CYP1A2): over 95%
COc1ccc2c(c1)[C@]13CCCC[C@@H]1[C@H](C2)N(C)CC3 [Dextromethorphan, dextromethorphan] | 0.869 (0.638–1.184) | 0.907 (0.681–1.209) | 0.849 (0.688–1.047) | 7.006 h | 7.540 h | – | 43.5 ng·h/mL | 50.1 ng·h/mL | 17.1 ng·h/mL | 18.9 ng·h/mL | – | – | – | Tmax [1]: 2 h
CN1CC[C@@]23CCCC[C@@H]2[C@@H]1Cc1ccc(O)cc13 [Dextrorphan, dextrorphan] | 1.042 (0.932–1.164) | 1.044 (0.926–1.176) | 1.024 (0.876–1.198) | – | – | 2.000 h | 66.1 ng·h/mL | 63.5 ng·h/mL | 60.3 ng·h/mL | 57.7 ng·h/mL | 3.43 h | 3.92 h | – | –
CCCCc1nc(Cl)c(C(=O)O)n1Cc1ccc(-c2ccccc2-c2nn[nH]n2)cc1 [EXP3174] | 0.813 (0.687–0.963) | 0.811 (0.684–0.963) | 0.832 (0.694–0.997) | – | – | – | 2610 ng·h/mL | 3210 ng·h/mL | 2500 ng·h/mL | 3080 ng·h/mL | – | – | 3 h | Tmax [1, 7]: 4 h
CCCCc1nc(Cl)c(CO)n1Cc1ccc(-c2ccccc2-c2nn[nH]n2)cc1 [Losartan, losartan] | 1.047 (0.887–1.237) | 1.048 (0.887–1.239) | 0.974 (0.797–1.190) | – | – | – | 549 ng·h/mL | 524 ng·h/mL | 542 ng·h/mL | 517 ng·h/mL | 1.94 h | 1.86 h | 1.5 h | Tmax [1, 7]: 1.5 h
Cc1ncc2n1-c1ccc(Cl)cc1C(c1ccccc1F)=NC2 [Midazolam, midazolam] | 1.138 (1.007–1.285) | 1.157 (1.022–1.309) | 0.873 (0.732–1.041) | – | – | – | 126 ng·h/mL | 110 ng·h/mL | 119 ng·h/mL | 103 ng·h/mL | 2.96 h | 3.3 h | – | –
